Laboratory results: patent publication US20130210057A1, “USE OF LABEL-FREE BIOSENSORS TO UNDERSTAND AND IDENTIFY TREATMENT FOR CANCER” (CORNING INCORPORATED, priority 2012, published 2013)
Ends that are not written are not given here.

Key:
Format in all cases: cell-based, human
[1] = test system: HCT116 parental cell line; experiment: Label-free RWG biosensor DMR assay; details: HCT116 parental
Source text: (§1) EPIC® beta version wavelength interrogation system (Corning Inc., NY) was used for whole cell sensing. This system consists of a temperature-control unit, an optical detection unit, and an on-board liquid handling unit with robotics. The detection unit is centered on integrated fiber optics, and enables kinetic measures of cellular responses with a time interval of ˜15 sec. Also EPIC® commercial systems were used, with a liquid handler accessory attached to EPIC® reader system. Also, an Epic® RWG imager can be used.
(§2) The resonant waveguide grating (RWG) biosensor is capable of detecting minute changes in local index of refraction near the sensor surface and the waveguide thin film having gratings provide a cell culture surface. Since the local index of refraction within a cell is a function of density and its distribution of biomass (e.g., proteins, molecular complexes), the biosensor exploits its evanescent wave to non-invasively detect ligand-induced Dynamic Mass Redistribution (DMR) in native cells. When a cell is stimulated, it responds. That response is a redistribution of biomass in the cell. Upon stimulation, proteins, protein complexes, and/or organelles in the cells move. The evanescent wave extends into the cells and exponentially decays over distance, leading to a characteristic sensing depth of ˜150 nm. Any optical response mediated through receptor activation only represents an average over the portion of the cell that the evanescent wave is sampling. The aggregation of many cellular events downstream to the receptor activation leads to a DMR signal having characteristic kinetics and amplitudes.
(§3) All assays were carried out at a controlled temperature (28° C.). At least two independent sets of experiments, each with at least three replicates, were performed.

[2] = test system: HCT116-PTEN Null cell line; experiment: Label-free RWG biosensor DMR assay
Source text: as §1, §2, §3

HCT116 parental cells = experiment: Calcium flux assay (FLUO-4, FDSS/FLIPR); details: small molecule agonists 10 micromolar, peptide and lipid agonists 1 micromolar
Source text: (§4) To screen endogenous receptors and their coupled signaling pathways, we first assembled a GPCR agonist focused library (Table 1). The library consists of 120 GPCR agonists covering over 150 known GPCRs, based on their known pharmacology including polypharmacology. For small molecule chemical agonists, the dose used was 10 micromolar. For peptide agonists, the dose used was 1 micromolar. For lipid agonists, the dose used was also 1 micromolar. For both peptides and lipids, these agonists were suspended in a solution containing 0.05% bovine […] to increase their stability.

HCT116 PTEN null cells = experiment: Calcium flux assay (FLUO-4, FDSS/FLIPR); details: small molecule agonists 10 micromolar, peptide and lipid agonists 1 micromolar
Source text: as §4

[3] = test system: Akt, ERK1/2, EGFR, c-Src, STAT3 phosphorylation in PTEN null cells; experiment: Western blot analysis of key signaling proteins in GPCR signaling; details: serum-starved, 5 min treatment; for Akt activation (phospho-Akt): SFLLR, SLIGKV 1 μM, S1P, LPA 2.5 μM
[4] = test system: Akt, ERK1/2, EGFR, c-Src, STAT3 phosphorylation in HCT116 parental cells; experiment: as above; details: serum-starved, 5 min treatment; for Akt activation (phospho-Akt): SFLLR, SLIGKV 1 μM, S1P, LPA 2.5 μM

Compound | receptor / signaling pathway activated (pathway deconvolution of DMR with toxins) ([1]; 10 μM agonist) | agonist DMR in PTEN deleted cell line compared to parental cell line (sensitivity to PTEN deletion) ([2]; 10 μM agonist (EGF, IGF1 1 μM)) | receptor / signaling pathway activated (pathway deconvolution of DMR with toxins) ([2]; HCT116-PTEN Null, 10 μM agonist) | Ca^2+ mobilization (fold increase in fluorescence, FLIPR) (HCT116 parental cells) | Ca^2+ mobilization (fold increase in fluorescence, FLIPR) (HCT116 PTEN null cells) | EGFR activation [3] | Akt activation (phospho-Akt) [3] | Akt activation (phospho-Akt) [4] | level of phosphorylated STAT3 [3] | level of phosphorylated STAT3 [4] | agonist-induced DMR signal ([1]; untreated, 10 μM agonist (EGF, IGF1 1 μM)) | agonist-induced DMR signal ([2]; HCT116-PTEN Null, untreated, 10 μM agonist (EGF, IGF1 1 μM)) | potency to trigger DMR, PTEN null vs parental ([2]; dose response, early P-DMR or late P-DMR (50 min poststimulation) amplitudes) | efficacy to trigger DMR, PTEN null vs parental ([2]; dose response, early or late P-DMR event)
Nc1ncnc2c1ncn2[C@@H]1O[C@H](COP(=O)(O)OP(=O)(O)OP(=O)(O)O)[C@@H](O)[C@H]1O [ATP] | activates multiple GPCRs and mediates signaling via multiple G proteins | dramatically different | activates multiple GPCRs and mediates signaling via multiple G proteins | robust Ca^2+ mobilization | robust Ca^2+ mobilization | – | – | – | – | – | – | – | – | –
CCCCCCCCCCCCC/C=C/[C@@H](O)[C@@H](N)COP(=O)(O)O [S1P, sphingosine-1-phosphate] | – | – | – | – | – | did not activate | did not activate | did not activate | – | – | – | – | – | –
SFLLR-amide | – | distinct characteristics | – | robust Ca^2+ mobilization | robust Ca^2+ mobilization | – | did not activate | did not activate | significantly increased | significantly increased | robust DMR signal | robust DMR signal | almost identical | higher efficacy
SLIGKV-NH2 | – | – | – | robust Ca^2+ mobilization | robust Ca^2+ mobilization | – | did not activate | did not activate | – | – | – | – | – | –
